Experimental data as given in patent US8431581B2, “Imidazopyrimidines and uses thereof” (priority 2008, dated 2013).

These compounds were tested on HIV-1 reporter virus, integrase Q148H/G140S (QHGS) (assay: Luciferase reporter virus infectivity assay, QHGS mutant). Details: 293T cells, Q148H/G140S reporter virus, Table 3; read-out: EC50 against the QHGS mutant.
Type: cell-based
Source text: Infectivity assays using reporter viruses derived from lentiviral vectors capable of a single round of infection were used to determine the activity (EC50) of compounds. The DNA used to generate viruses for infection was the full-length HIV-1 genome which had been envelope-deleted. In addition, a reporter gene (the firefly luciferase gene from Photinus pyralis) was cloned into the nef region of the HIV backbone for ease of assay readout. […]. Culture supernatants containing VSV-G pseudotyped virions were harvested 64 h post transfection, clarified by centrifugation to remove cell debris, and frozen at −70° C. until use.
HIV integrase was mutated within a shuttle vector (pGEM) containing the majority of the HIV-1 gag and pol sequence using site-directed mutagenesis to generate sequences that are known to confer resistance to published integrase inhibitors. These include but are not limited to mutations such as Q148H/G140S (in tables 2 and 3 # QHGS), N155H/E92Q (in table 2 # NHEQ), F121Y/T124K (in table 2 FYTK), Y143R (in table 2 # Y143R) and the triple mutant Q148K/G140A/E138A. (in table 2 # QKGAEA). The mutated integrase coding region within the shuttle vector was sequence verified, and then exchanged for the wild-type (WT) coding sequence in the reporter virus DNA backbone.
293T cells were plated out at 12000 cells per well in CellView 96-well cell culture plates (Invitrogen) 16 h prior to compound addition. Compounds were preincubated with cells for 4 h at 37° C. prior to the addition of virus sufficient to generate approximately 10000 Luciferase light units (as measured by the Victor Wallace luminometer) upon assaying using the Bright-Glo™ reagent (Promega) according to the manufacturer's instructions at 48 h post infection.
“6-Benzyloxy-1-[2-(2,6-dimethyl-morpholin-4-yl)-2-oxo-ethyl]-7-[5-(4-fluoro-2-methylsulfanyl-benzyl)-thiazol-2-yl]-1H-imidazo[1,2-a]pyrimidin-5-one [Example 168]” showed an EC50 of 500 to 1000 nM.

Same assay, conditions: Human immunodeficiency virus 1, HEK-293T, read-out: EC50 against the QHGS mutant
With O=C(NCc1ccc(Cl)c(Cl)c1)c1nc2n(CC(=O)N3CCCCC3)cc(CN3CCOCC3)n2c(=O)c1O [Example 181, 6-Hydroxy-3-morpholin-4-ylmethyl-5-oxo-1-(2-oxo-2-piperidin-1-yl-ethyl)-1,5-dihydro-imidazo[1,2-a]pyrimidine-7-carboxylic acid 3,4-dichloro-benzylamide] the EC50 was 500 to 1000 nM.
C[C@@H]1CN(C(=O)Cn2ccn3c(=O)c(O)c(-c4ncc(Cc5ccc(F)cc5S(C)(=O)=O)s4)nc23)C[C@@H](C)O1 (stereo in doubt) [Example 138, 1-[2-(2,6-Dimethyl-morpholin-4-yl)-2-oxo-ethyl]-7-[5-(4-fluoro-2-methanesulfonyl-benzyl)-thiazol-2-yl]-6-hydroxy-1H-imidazo[1,2-a]pyrimidin-5-one] gave an EC50 of 500 to 1000 nM.
With CC1CN(C(=O)C(C)n2ccn3c(=O)c(O)c(-c4ncc(Cc5ccc(F)cc5)s4)nc23)CC(C)O1 (stereo not drawn) [Example 184, 1-[2-(2,6-Dimethyl-morpholin-4-yl)-1-methyl-2-oxo-ethyl]-7-[5-(4-fluoro-benzyl)-thiazol-2-yl]-6-hydroxy-1H-imidazo[1,2-a]pyrimidin-5-one] the EC50 was 1000 to 10000 nM.
In the case of CC1CCCCN1C(=O)Cn1cc(N2CCCS2(=O)=O)n2c(=O)c(O)c(C(=O)NCc3ccc(F)cc3S(=O)(=O)N(C)C)nc12 (stereo not drawn) [Example 189, 3-(1,1-Dioxo-1lambda*6*-isothiazolidin-2-yl)-6-hydroxy-1-[2-(2-methyl-piperidin-1-yl)-2-oxo-ethyl]-5-oxo-1,5-dihydro-imidazo[1,2-a]pyrimidine-7-carboxylic acid 2-dimethylsulfamoyl-4-fluoro-benzylamide], the EC50 is reported as 500 to 1000 nM.
In the case of CSCc1cn(CC(=O)N2CC(C)CC(C)C2)c2nc(C(=O)NCc3ccc(F)cc3S(=O)(=O)N(C)C)c(O)c(=O)n12 (stereo not drawn) [Example 192, 1-[2-(3,5-Dimethyl-piperidin-1-yl)-2-oxo-ethyl]-6-hydroxy-3-methylsulfanylmethyl-5-oxo-1,5-dihydro-imidazo[1,2-a]pyrimidine-7-carboxylic acid 2-dimethylsulfamoyl-4-fluoro-benzylamide], the EC50 is reported as less than 500 nM.
C[C@H]1CN(C(=O)Cn2ccn3c(=O)c(O)c(-c4ncc(Cc5ccc(F)cc5)s4)nc23)C[C@H](C)O1 [Example 182, 1-[2-((2S,6S)-2,6-Dimethyl-morpholin-4-yl)-2-oxo-ethyl]-7-[5-(4-fluoro-benzyl)-thiazol-2-yl]-6-hydroxy-1H-imidazo[1,2-a]pyrimidin-5-one] gave an EC50 of less than 500 nM.
For C[C@H]1CN(C(=O)Cn2cc(N3CCCS3(=O)=O)n3c(=O)c(O)c(-c4ncc(Cc5ccc(F)cc5)s4)nc23)C[C@H](C)O1 [Example 75, 1-[2-(2,6-Dimethyl-morpholin-4-yl)-2-oxo-ethyl]-3-(1,1-dioxo-1l6-isothiazolidin-2-yl)-7-[5-(4-fluoro-benzyl)-thiazol-2-yl]-6-hydroxy-1H-imidazo[1,2-a]pyrimidin-5-one], the EC50 was 500 to 1000 nM.
CC1CC(C)CN(C(=O)Cn2cc(N3CCCS3(=O)=O)n3c(=O)c(O)c(C(=O)NCc4ccc(Cl)c(Cl)c4)nc23)C1 (stereo not drawn) [Example 190, 1-[2-(3,5-Dimethyl-piperidin-1-yl)-2-oxo-ethyl]-3-(1,1-dioxo-1lambda*6*-isothiazolidin-2-yl)-6-hydroxy-5-oxo-1,5-dihydro-imidazo[1,2-a]pyrimidine-7-carboxylic acid 3,4-dichloro-benzylamide] gave an EC50 of 500 to 1000 nM.
CC1CC(C)CN(C(=O)Cn2cc(CS(C)(=O)=O)n3c(=O)c(O)c(C(=O)NCc4ccc(F)cc4S(=O)(=O)N(C)C)nc23)C1 (stereo not drawn) [Example 194, 1-[2-(3,5-Dimethyl-piperidin-1-yl)-2-oxo-ethyl]-6-hydroxy-3-methanesulfonylmethyl-5-oxo-1,5-dihydro-imidazo[1,2-a]pyrimidine-7-carboxylic acid 2-dimethylsulfamoyl-4-fluoro-benzylamide] showed an EC50 of less than 500 nM.
CC1CC(C)CN(C(=O)Cn2cc(CS(C)(=O)=O)n3c(=O)c(O)c(C(=O)NCc4ccc(Cl)c(Cl)c4)nc23)C1 (stereo not drawn) [Example 193, 1-[2-(3,5-Dimethyl-piperidin-1-yl)-2-oxo-ethyl]-6-hydroxy-3-methanesulfonylmethyl-5-oxo-1,5-dihydro-imidazo[1,2-a]pyrimidine-7-carboxylic acid 3,4-dichloro-benzylamide] showed an EC50 of less than 500 nM.
CN(C)S(=O)(=O)c1cc(F)ccc1CNC(=O)c1nc2n(CC(=O)N3CCCCC3)cc(N3CCCS3(=O)=O)n2c(=O)c1O [Example 188, 3-(1,1-Dioxo-1lambda*6*-isothiazolidin-2-yl)-6-hydroxy-5-oxo-1-(2-oxo-2-piperidin-1-yl-ethyl)-1,5-dihydro-imidazo[1,2-a]pyrimidine-7-carboxylic acid 2-dimethylsulfamoyl-4-fluoro-benzylamide] gave an EC50 of less than 500 nM.
C[C@H]1CN(C(=O)Cn2ccn3c(=O)c(O)c(-c4ncc(Cc5ccc(F)cc5S(=O)(=O)N(C)C)s4)nc23)C[C@H](C)O1 (stereo in doubt) [Example 104, 2-(2-{1-[2-(2,6-Dimethyl-morpholin-4-yl)-2-oxo-ethyl]-6-hydroxy-5-oxo-1,5-dihydro-imidazo[1,2-a]pyrimidin-7-yl}-thiazol-5-ylmethyl)-5-fluoro-N,N-dimethyl-benzenesulfonamide] was tested, and the EC50 was less than 500 nM.
Work on CN1CCC(n2ccn3c(=O)c(O)c(-c4ncc(Cc5ccc(F)cc5)s4)nc23)C1=O (stereo not drawn) [Example 183, 7-[5-(4-Fluoro-benzyl)-thiazol-2-yl]-6-hydroxy-1-(1-methyl-2-oxo-pyrrolidin-3-yl)-1H-imidazo[1,2-a]pyrimidin-5-one] yielded an EC50 of 500 to 1000 nM.
COC(=O)c1cc(F)ccc1Cc1cnc(-c2nc3n(CC(=O)N4C[C@H](C)O[C@@H](C)C4)ccn3c(=O)c2O)s1 (stereo in doubt) [Example 58, 2-(2-{1-[2-(2,6-Dimethyl-morpholin-4-yl)-2-oxo-ethyl]-6-hydroxy-5-oxo-1,5-dihydro-imidazo[1,2-a]pyrimidin-7-yl}-thiazol-5-ylmethyl)-5-fluoro-benzoic acid methyl ester] was tested, and the EC50 was 500 to 1000 nM.
Compound CC1CCN(C(=O)Cn2ccn3c(=O)c(O)c(-c4ncc(Cc5ccc(F)cc5)s4)nc23)CC1 [Example 157, 7-[5-(4-Fluoro-benzyl)-thiazol-2-yl]-6-hydroxy-1-[2-(4-methyl-piperidin-1-yl)-2-oxo-ethyl]-1H-imidazo[1,2-a]pyrimidin-5-one] has an EC50 of 500 to 1000 nM.
C[C@@H]1CN(C(=O)Cn2cc(N3CCCS3(=O)=O)n3c(=O)c(O)c(C(=O)NCc4ccc(F)cc4S(=O)(=O)N(C)C)nc23)C[C@@H](C)O1 [Example 186, 1-[2-((2R,6R)-2,6-Dimethyl-morpholin-4-yl)-2-oxo-ethyl]-3-(1,1-dioxo-1lambda*6*-isothiazolidin-2-yl)-6-hydroxy-5-oxo-1,5-dihydro-imidazo[1,2-a]pyrimidine-7-carboxylic acid 2-dimethylsulfamoyl-4-fluoro-benzylamide] gave an EC50 of less than 500 nM.
CC1CCCCN1C(=O)Cn1ccn2c(=O)c(O)c(-c3ncc(Cc4ccc(F)cc4)s3)nc12 (stereo not drawn) [Example 126, 7-(5-(4-fluorobenzyl)thiazol-2-yl)-6-hydroxy-1-(2-(2-methylpiperidin-1-yl)-2-oxoethyl)imidazo[1,2-a]pyrimidin-5(1H)-one] showed an EC50 of 500 to 1000 nM.
